# Assays:
# [1] = molecular target: T1, murine acetylcholinesterase (mAChE) (Mus musculus, UniProt P21836); experiment: Ellman's method enzyme assay, mAChE inhibition; format: biochemical; settings: for % inhibition at 10 μM mAChE: 10 μM compound, n.i. = no inhibition
# T1 sequence (P21836 32-614): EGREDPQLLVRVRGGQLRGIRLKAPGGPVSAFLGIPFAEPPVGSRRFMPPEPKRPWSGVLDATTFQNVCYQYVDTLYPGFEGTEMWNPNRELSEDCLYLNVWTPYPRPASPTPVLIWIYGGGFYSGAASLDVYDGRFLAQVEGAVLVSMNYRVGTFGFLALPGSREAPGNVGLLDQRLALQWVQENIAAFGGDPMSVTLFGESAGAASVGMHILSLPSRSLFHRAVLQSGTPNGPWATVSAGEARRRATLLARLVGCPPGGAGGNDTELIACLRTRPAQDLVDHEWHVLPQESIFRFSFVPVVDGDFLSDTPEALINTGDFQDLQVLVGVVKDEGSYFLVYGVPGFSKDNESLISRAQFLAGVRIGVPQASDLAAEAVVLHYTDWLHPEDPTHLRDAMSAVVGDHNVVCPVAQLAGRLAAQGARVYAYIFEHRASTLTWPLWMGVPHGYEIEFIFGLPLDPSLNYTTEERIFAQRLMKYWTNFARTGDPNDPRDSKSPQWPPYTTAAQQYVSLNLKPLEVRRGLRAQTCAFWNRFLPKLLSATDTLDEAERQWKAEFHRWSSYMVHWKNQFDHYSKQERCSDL
# Excerpt: (§1) Ellman's method was used to evaluate the inhibitory activities of the synthesized compounds against the cholinesterases. […] As a substrate butyrylthiocholine (BTC) and acetylthiocholine (ATC) iodides were used for BChE and AChE, respectively. […] For the reference sample, 1% dimethylsulfoxide (DMSO) replaced the inhibitor's solution.
# (§2) Potency of the inhibitor is expressed as a residual activity (RA) of the enzyme at the employed inhibitor's concentration, half maximal inhibitory concentration (IC50 value) and as an inhibition constant (Ki).
# (§3) The enzyme reactions were carried out using murine acetylcholinesterase (mAChE) and human recombinant butyrylcholinesterase (huBChE). From the lyophilised powders of both enzymes, the solutions were obtained by dissolution of the powders in 10 mM MES buffer (pH 6.5) to reach the concentration of 4 mg/mL. The concentrated enzyme solution was diluted prior use in 100 mM phosphate buffer (pH 8.0) to reach the activity of the enzyme in the assay of approximately 500 mAu per minute.
# (§4) ATCI in BTCI solutions were prepared in 100 mM phosphate buffer (pH 8.0) to reach the final concentration in the assay of 500 μM.
# Stock solutions of compounds were prepared in DMSO in a concentration of 10 mM.
# (§5) Enzyme solutions were prepared by dilution of the concentrated stocks in the 100 mM phosphate buffer (pH 8.0). […] Enzyme reaction was started with the addition of the substrate. The DMSO concentration in the test solution was always 1%. […] For the determination of blank (b) the phosphate buffer replaced the enzyme solution. Initial velocity of the enzyme reaction (v0) was determined from the linear curve of the enzyme reaction product formation, where each measurement was performed in triplicate. For the initial screening of inhibition ability, […] concentration of the investigated compounds was used. Compounds were pipetted in the corresponding wells to reach the final concentration of 10 μM. Tested compound and the enzyme solution were first preincubated for 300s, followed by the substrate addition, which triggered the enzyme reaction. The initial velocity in presence of the inhibitor was further calculated (vi). The inhibition capability was expressed as residual activity (RA=(vi−b)/(vo−b)).
# (§6) IC50 values were determined by plotting the RA versus the concentration of the investigated compound.
# (§7) Where X is a common logarithm of the concentration of the inhibitor and Y is the residual activity. For solving the equation Gnuplot software and an in-house python script were used. For the determination of the inhibition constant full progress curves of the product formation in presence and absence of investigated compounds were monitored. The curves were submitted in the ENZO web-application, which allows solving of numerical equations.
# [2] = molecular target: human recombinant butyrylcholinesterase (huBChE) (Homo sapiens, UniProt P06276); experiment: biochemical; settings: read-out: IC50 ± STD (μM) huBChE
# Excerpt: as §1, §2, §3, §4, §5, §6, §7
# Chain of human recombinant butyrylcholinesterase (huBChE) (P06276 29-602): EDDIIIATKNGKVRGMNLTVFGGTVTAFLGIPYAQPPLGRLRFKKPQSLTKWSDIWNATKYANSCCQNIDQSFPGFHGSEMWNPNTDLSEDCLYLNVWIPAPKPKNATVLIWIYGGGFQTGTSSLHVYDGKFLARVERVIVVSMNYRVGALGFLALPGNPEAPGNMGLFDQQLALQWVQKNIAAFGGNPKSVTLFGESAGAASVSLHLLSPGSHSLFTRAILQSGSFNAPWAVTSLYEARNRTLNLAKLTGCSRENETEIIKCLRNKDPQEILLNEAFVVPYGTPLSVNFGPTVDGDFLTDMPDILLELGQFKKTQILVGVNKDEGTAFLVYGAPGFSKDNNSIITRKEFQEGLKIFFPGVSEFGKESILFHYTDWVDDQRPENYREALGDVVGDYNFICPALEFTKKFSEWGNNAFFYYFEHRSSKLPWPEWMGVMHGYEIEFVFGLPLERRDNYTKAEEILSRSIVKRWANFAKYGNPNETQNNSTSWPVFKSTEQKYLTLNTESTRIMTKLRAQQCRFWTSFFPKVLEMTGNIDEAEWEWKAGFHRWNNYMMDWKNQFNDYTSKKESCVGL
Compound,"% inhibition at 10 μM mAChE ([1]; Table 2, formula (II))",IC50 [2],"IC50 ([1]; Table 2, formula (II), substrate ATCI 500 μM, read-out: IC50 ± STD (μM) mAChE)","inhibition at 10 µM ([1]; read-out: % inhibition ± STD at 10 μM inhibitor mAChE, Table 1, formula (I), 10 μM inhibitor)"
O=S(=O)(NCC1CCCN(Cc2ccc(F)cc2Cl)C1)c1ccc2ccccc2c1 (stereo not drawn),73 ± 3.60%,0.347 ± 0.06 µM,,
COCCN(CC1CCCN(Cc2cccc(F)c2)C1)S(=O)(=O)c1ccc2ccccc2c1 (stereo not drawn),n.i.,0.0491 ± 0.0012 µM,,
COCCN(CC1CCCN(C2Cc3ccccc3C2)C1)S(=O)(=O)c1ccc([N+](=O)[O-])cc1 (stereo not drawn),n.i.,3.47 ± 0.052 µM,,
CCCN(CC1CCCN(Cc2ccccc2)C1)S(=O)(=O)c1ccc2ccccc2c1 (stereo not drawn),n.i.,0.0428 ± 0.0064 µM,,
COCCN(CC1CCCN(Cc2cccc(C#N)c2)C1)S(=O)(=O)c1ccc2ccccc2c1 (stereo not drawn),n.i.,0.338 ± 0.008 µM,,
COCCN(CC1CCCN(C2Cc3ccccc3C2)C1)S(=O)(=O)c1ccccc1C(=O)OC (stereo not drawn),n.i.,0.359 ± 0.018 µM,,
Cc1nc(CN2CCCC(CNS(=O)(=O)c3ccc4ccccc4c3)C2)cs1 (stereo not drawn),71 ± 3.68%,0.366 ± 0.031 µM,,
CN(CC1CCCN(Cc2ccccc2)C1)S(=O)(=O)c1ccc2ccccc2c1 (stereo not drawn),n.i.,,,
COCCN(CC1CCCN(Cc2ccc(N(C)C)cc2)C1)S(=O)(=O)c1ccc2ccccc2c1 (stereo not drawn),n.i.,0.311 ± 0.022 µM,,
COCCN(CC1CCCN(Cc2ccccc2)C1)S(=O)(=O)c1ccc2ccc(OC)cc2c1 (stereo not drawn),n.i.,0.156 ± 0.033 µM,,
COCCN(CC1CCCN(Cc2ccc(F)cc2)C1)S(=O)(=O)c1ccc2ccccc2c1 (stereo not drawn),n.i.,0.231 ± 0.006 µM,,
COCCN(CC1CCCN(C2Cc3ccccc3C2)C1)S(=O)(=O)c1cccc(N)c1 (stereo not drawn),n.i.,,,
COCCN(CC1CCCN(Cc2ccccc2)C1)S(=O)(=O)c1ccc2ccccc2c1 (stereo not drawn),n.i.,,,
O=S(=O)(NCC1CCN(Cc2ccccc2)CC1)c1ccc2ccccc2c1,,,1.78 ± 0.085 µM,
N#Cc1ccc(CN2CCCC(CNS(=O)(=O)c3ccc4ccccc4c3)C2)cc1 (stereo not drawn),n.i.,2.09 ± 0.328 µM,,
COCCN(CC1CCCN(C2Cc3ccccc3C2)C1)S(=O)(=O)c1cccc([N+](=O)[O-])c1 (stereo not drawn),,3.61 ± 0.528 µM,,
COCCN(CC1CCN(Cc2ccccc2)CC1)S(=O)(=O)c1ccc2ccccc2c1,n.i.,,,
COCCN(CC1CCCN(C2Cc3ccccc3C2)C1)S(=O)(=O)c1ccc(C)cc1 (stereo not drawn),n.i.,0.279 ± 0.008 µM,,
COCCN(CC1CCCN(C2Cc3ccccc3C2)C1)S(=O)(=O)c1ccc(F)cc1 (stereo not drawn),n.i.,0.887 ± 0.08 µM,,
COCCN(CC1CCCN(C2Cc3ccccc3C2)C1)S(=O)(=O)c1ccccc1 (stereo not drawn),n.i.,0.343 ± 0.005 µM,,
CN(C)CCN(CC1CCCN(C2Cc3ccccc3C2)C1)C(=O)c1ccc2ccccc2c1 (stereo not drawn),,,,17.4 ± 3.7%

Compound,"% inhibition at 10 μM mAChE ([1]; Table 2, formula (II))",IC50 [2],"IC50 ([1]; Table 2, formula (II), substrate ATCI 500 μM, read-out: IC50 ± STD (μM) mAChE)","inhibition at 10 µM ([1]; read-out: % inhibition ± STD at 10 μM inhibitor mAChE, Table 1, formula (I), 10 μM inhibitor)"
COCCCN(CC1CCCN(Cc2ccccc2)C1)S(=O)(=O)c1ccc2ccc(OCC#N)cc2c1 (stereo not drawn),n.i.,0.113 ± 0.008 µM,,
COCCN(CC1CCCN(C2Cc3ccccc3C2)C1)S(=O)(=O)c1cccc(NC(C)=O)c1 (stereo not drawn),n.i.,8.21 ± 0.601 µM,,
COCCN(CC1CCCN(Cc2ccccc2)C1)S(=O)(=O)c1cccc2ccccc12 (stereo not drawn),n.i.,0.059 ± 0.0054 µM,,
COCCN(CC1CCCN(Cc2ccc(C#N)cc2)C1)S(=O)(=O)c1ccc2ccccc2c1 (stereo not drawn),n.i.,1.46 ± 0.115 µM,,
CCN(CC1CCCN(Cc2ccccc2)C1)S(=O)(=O)c1ccc2ccccc2c1 (stereo not drawn),n.i.,0.038 ± 0.0026 µM,,
COCCN(CC1CCCN(C2Cc3ccccc3C2)C1)S(=O)(=O)c1ccc2ccccc2c1 (stereo not drawn),72 ± 0.86%,,,
CNC(=O)c1ccccc1S(=O)(=O)N(CCOC)CC1CCCN(C2Cc3ccccc3C2)C1 (stereo not drawn),n.i.,3.23 ± 0.492 µM,,
Cc1cccc(CN2CCCC(CNS(=O)(=O)c3ccc4ccccc4c3)C2)c1 (stereo not drawn),57 ± 3.55%,0.287 ± 0.022 µM,,
CN(CC1CCCN(Cc2ccc(F)cc2)C1)S(=O)(=O)c1ccc2ccccc2c1 (stereo not drawn),n.i.,0.427 ± 0.044 µM,,
CCCCN(CC1CCCN(Cc2ccccc2)C1)S(=O)(=O)c1ccc2ccccc2c1 (stereo not drawn),n.i.,0.0355 ± 0.0044 µM,,
COCCN(CC1CCCN(C2Cc3ccccc3C2)C1)S(=O)(=O)c1ccc(N)cc1 (stereo not drawn),n.i.,0.314 ± 0.036 µM,,
COCCN(CC1CCCN(C2Cc3ccccc3C2)C1)S(=O)(=O)c1ccc(NC(C)=O)cc1 (stereo not drawn),n.i.,0.321 ± 0.035 µM,,
O=S(=O)(NCC1CCCN(Cc2ccncc2)C1)c1ccc2ccccc2c1 (stereo not drawn),n.i.,1.67 ± 0.256 µM,,
COCCN(CC1CCCN(C2Cc3ccccc3C2)C1)S(=O)(=O)c1ccc(OC)cc1 (stereo not drawn),n.i.,0.482 ± 0.066 µM,,
O=S(=O)(NCC1CCCN(Cc2ccccc2)C1)c1ccc2ccccc2c1 (stereo not drawn),n.i.,,,
O=S(=O)(NCC1CCCN(Cc2ccc(F)cc2)C1)c1ccc2ccccc2c1 (stereo not drawn),75 ± 4.19%,0.583 ± 0.043 µM,,
COCCN(CC1CCN(C2Cc3ccccc3C2)CC1)S(=O)(=O)c1ccc2ccccc2c1,n.i.,,,
COCCCN(CC1CCN(C2Cc3ccccc3C2)CC1)S(=O)(=O)c1ccc2ccccc2c1,n.i.,,,
COCCCN(CC1CCCN(Cc2ccccc2)C1)S(=O)(=O)c1ccc2ccccc2c1 (stereo not drawn),n.i.,,,
COCCCN(CC1CCN(Cc2ccccc2)CC1)S(=O)(=O)c1ccc2ccccc2c1,n.i.,,,

# — patent US10071964B2, “Disubstituted piperidines as butyrylcholinesterase inhibitors” (priority 2015, dated 2018)
